Results reported in US11723897B2, “Fatty acids as anti-inflammatory agents” (University of Pittsburgh—Of the Commonwealth System of …, priority 2009, dated 2023).
“Also recorded” adds a separate entry of the source. Like-named read-outs stand apart in the source and are kept apart here.

Assays:
[1] = test system: EFAD formation in RAW264.7 cells; test: Inhibitor study: EFAD formation in RAW264.7 cells activated with Kdo2 and IFNγ; format: cell-based, murine; settings: for Effect of inhibitor on EFAD-1 formation / Effect of inhibitor on EFAD-2 formation / Effect of inhibitor on EFAD-3 formation / Effect of inhibitor on EFAD-4 formation / Effect of inhibitor on EFAD-6 formation / Effect of inhibitor on EFAD-5 formation: RAW264.7 + Kdo2 + IFNγ, ↓ decrease, ↑ increase, NE (not defined in patent)
[2] = test system: Nrf2-dependent anti-oxidant response pathway; test: Nrf2 nuclear accumulation and HO-1/Nqo1 expression (western blot) in RAW264.7 cells; format: cell-based, murine; settings: for Nrf2 nuclear accumulation: nuclear extracts, 1 h after treatment; for Expression of HO-1 and Nqo1: western blot, 18 h after treatment
[3] = test system: RAW264.7 cells; test: Cytokine levels (IL-6, MCP-1, IL-10) in Kdo2+IFNγ-activated RAW264.7 cells; format: cell-based, murine
[4] = test system: inducible nitric oxide synthase (iNOS); test: Nitrite, iNOS and Cox-2 levels in Kdo2+IFNγ-activated RAW264.7 cells; format: cell-based, murine; settings: for iNOS induction and accumulation of nitrite in the cell media: RAW264.7
Protocol: FIG. 11a-11e illustrates modulation of anti-oxidant and inflammatory responses by 17-oxoDHA and 17-oxoDPA. RAW264.7 cells were treated with increasing concentration of 17-oxoDHA and 17-oxoDPA. (a) Cells were harvested 1 h after treatment and Nrf2 levels were quantified in nuclear extracts. (b) Cells were harvested 18 h after treatment and HO-1 and Nqo1 (upper band) levels were measured by western blot. (c, d) RAW264.7 cells were treated with increasing concentration of 17-oxoDHA and 17-oxoDPA for 6 h and Kdo2+IFNγ were added. Samples were collected at 12 h. IL-6, MCP-1 and IL-10 levels were measured in the cell media by Quantikine ELISA Kit (R&D Systems) and normalized by the total protein content (c); Nitrite levels were measured in the cell media and normalized by the total protein content and iNOS and Cox-2 levels were measured in total cell lysates (d); (e) PPARγ beta-lactamase reporter assays were performed for Rosiglitazone, 17-OxoDPA, 17-OxoDHA, 15d-PGJ2, 17-hydroxyDHA, DPA, and DHA with concentrations ranging from 0.5-10,000 nM.
For activation experiments RAW 264.7 cells were seeded, incubated overnight, and treated at approximately 80% confluence with the indicated compounds 47. Non-activated controls were treated with vehicle alone. During activation, cells were maintained in an activation medium (SMEM) of Minimum Essential Medium Eagle (Cellgro, 17-305)+2% FBS supplemented with L-glutamine (584 mg/L), Na-pyruvate (110 mg/L) and Hepes (3.57 g/L, pH 7.4). For inhibition studies, inhibitors were added to the medium at the time of activation and MTT assays were used to confirm cell viability. Cells were harvested 20 h post activation (unless otherwise indicated) in 50 mM phosphate buffer (pH 7.4) and snap frozen in liquid N2. THP-1 cells were differentiated with PMA (86 nM) for 16 h, activated with IFNγ (200 U/ml) and Kdo2 lipid A (0.5 μg/ml) in RPMI+2% FBS and harvested 40 h after differentiation. For treatment with EFADs alone, 17-oxoDHA and 17-oxoDPA were added to cell culture media at the indicated concentrations and for the indicated time period. For treatment with EFADs coupled with pro-inflammatory stimulation, addition of 17-oxoDHA and 17-oxoDPA was followed by addition of Kdo2 and IFNγ at 6 h.
Protein concentrations of samples were measured by BCA assay (Pierce). The following primary antibodies were used: Nrf2 (Santa Cruz, sc-722), HO-1 (Assay Design, SPA-896), Nqo1 (Abcam, ab34173), Cox-2 (Santa Cruz, sc-1745), iNOS (BD Transduction Lab, 610332), Lamin B1 (Abcam, ab16048). Actin (detected by Sigma A2066) was used as loading control. […]
Total nitrite and nitrate concentration was measured in cell culture media by Griess reaction using the Nitrate/Nitrite Colorimetric Assay Kit (Cayman Chemical).

[5] = target: rabbit GAPDH (Oryctolagus cuniculus, UniProt P46406); test: In vitro reaction of GAPDH with EFAD (mass spectrometry); format: binding; settings: Cys244, Cys149, His163, His328
Protocol: FIG. 21a-21h illustrates the mass spectrometric analysis of an in vitro reaction of GAPDH with EFAD-2. Four residues were detected and confined as being targets for EfAD-2 in treated rabbit GAPDH. The peptides were alkylated as Cys244 (a), His163 (b), Cys149 (c) and His328 (d). Upper panels show EFAD-2 modified peptides and lower panels show spectra from corresponding native peptide.
To more specifically test the binding of EFADs to nucleophilic residues in proteins, we tested whether GAPDH was alkylated by EFADs. This enzyme is a well-characterized target for electrophiles and becomes easily inactivated by nitrosylation, oxidation or nucleophilic addition.

[6] = test system: RAW264.7 cells; test: Fatty acid supplementation study in activated RAW264.7 cells; format: cell-based, murine; settings: 32 μM fatty acid for 3 days, then Kdo2 + IFNγ, 20 h
Protocol: (a) A characteristic BME electrophile adduct fragmentation pattern. showing the major neutral loss of 78 amu (corresponding to the loss of BME) is represented by the enhanced product ion analysis of EFAD-2. (b) RAW264.7 cells were grown for 3 days in DMEM and 10% FBS supplemented with 32 μM of the indicated fatty acid. On the third day cells were activated with Kdo2 (0.5 μg/ml)) and IFNγ (200 U/ml) and EFAD-2 levels were quantified 20 h post activation. (c) Diagram of NaBH4 reduction of oxo-group to an alcohol group. (d) MRM scans monitoring for the mlz transition of 343.2/299.2 (oxo-DPA losing CO2) in RAW264.7 cell lysates purified for EFAD-2, non-treated or treated with NaBH4 (upper and lower panel); MRM scans monitoring for the mlz transition of [345.2/327.2 (hydroxy-DPA/neutral loss of H20) in RAW264.7 cell lysates purified for EFAD-2 and treated with NaBH4. (e) MS/MS fragmentation of EFAD-2 purified from activated RAW 264.7 cells and reduced with NaBH4.
FIG. 16a-16b illustrates that EFAD-1 and -3 are derived from the n-3 series of fatty acids. RAW264.7 cells were grown for 3 days in DMEM and 10% FBS supplemented with 32 μM of the indicated fatty acid. On the third day cells were activated with Kdo2 Lipid A (0.5 μg/ml) and IFNγ (200 U/ml) and EFAD-1 and -3 levels were quantified 20 h post activation.
Similarly, the EFAD of DHA (EFAD-1) and the EFAD of DTA (EFAD-3), were identified as mono-oxygenated derivatives of a 22-carbon fatty acid with a total of six and four double bonds, respectively. To elucidate the precursors in vivo, fatty acid supplementation studies were performed. […] Moreover, as illustrated in FIG. 4 EFAD-2 formation is COX-2 dependent.

[7] = Mus musculus, RAW264.7, genistein 25 μM, MAFP 25 μM, ibuprofen 100 μM, 20 h, read-out: Inhibition of EFAD production
[8] = MK886 500 nM, ETYA 25 μM, OKA 50 nM, indomethacin 25 μM, diclofenac 1 μM, NS-398 4 μM, 20 h

rabbit GAPDH, sequence (P46406 whole entry): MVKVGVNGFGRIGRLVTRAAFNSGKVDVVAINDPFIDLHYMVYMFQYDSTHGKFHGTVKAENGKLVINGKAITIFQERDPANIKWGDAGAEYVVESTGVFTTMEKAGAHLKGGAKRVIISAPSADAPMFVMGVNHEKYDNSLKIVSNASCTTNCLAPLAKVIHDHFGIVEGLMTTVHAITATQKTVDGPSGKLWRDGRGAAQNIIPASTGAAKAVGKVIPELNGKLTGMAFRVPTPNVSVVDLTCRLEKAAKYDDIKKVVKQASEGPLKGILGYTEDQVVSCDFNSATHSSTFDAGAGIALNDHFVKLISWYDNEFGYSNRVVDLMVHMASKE

| Compound | Effect of inhibitor on EFAD-1 formation ([1]; 20 h) | Effect of inhibitor on EFAD-2 formation ([1]; 20 h) | Effect of inhibitor on EFAD-3 formation ([1]; 20 h) | Effect of inhibitor on EFAD-4 formation ([1]; 20 h) | Effect of inhibitor on EFAD-6 formation ([1]; 20 h) | Effect on EFAD formation (in words) [1, 8] | Effect of inhibitor on EFAD-5 formation ([1]; 20 h) | other results |
| --- | --- | --- | --- | --- | --- | --- | --- | --- |
| CC(C)Cc1ccc(C(C)C(=O)O)cc1 (racemic) [Ibuprofen] | ↓ | ↓ | ↓ | ↓ | ↓ | – | – | inhibition at 100 µM [1, 7]: > 80%; Effect of inhibitor on EFAD-1 formation ([1]; 20 h, listed as ibuprofen): no significant effect |
| CC/C=C\CC(=O)C=C/C=C\C/C=C\C/C=C\C/C=C\CCC(=O)O [17-oxoDHA, 17-oxo-(4Z,7Z,10Z,13Z,15A,19Z)-docosa-4,7,10,13,15,19-hexanoic acid] | – | – | – | – | – | – | – | Nrf2 nuclear accumulation [2]: promoted dose-dependent; also recorded: promoting nuclear accumulation of Nrf2; Expression of HO-1 and Nqo1 [2]: promoted dose-dependent; also recorded: promoting; IFNγ and LPS-induced cytokine production [3]: inhibited IFNγ and LPS-induced cytokine production in a dose-dependent manner; Reduction of nitrite production ([4]; 20 μM): ~70%; iNOS induction and accumulation of nitrite in the cell media [4]: dose-dependent inhibition; Adduct formation with GAPDH residues [5]: covalently bind Cys and His residues |
| CC/C=C\CC(=O)C=C/C=C\C/C=C\C/C=C\CCCCCC(=O)O [17-oxoDPA, 17-oxo-(7Z,10Z,13Z,15A,19Z)-docosa-7,10,13,15,19-pentanoic acid] | – | – | – | – | – | – | – | Nrf2 nuclear accumulation [2]: promoted dose-dependent; also recorded: promoting nuclear accumulation of Nrf2; Expression of HO-1 and Nqo1 [2]: promoted dose-dependent; also recorded: promoting; IFNγ and LPS-induced cytokine production [3]: inhibited IFNγ and LPS-induced cytokine production in a dose-dependent manner; Reduction of nitrite production ([4]; 25 μM): ~70%; iNOS induction and accumulation of nitrite in the cell media [4]: dose-dependent inhibition; Adduct formation with GAPDH residues [5]: covalently bind Cys and His residues |
| CC/C=C/C/C=C/C/C=C/C/C=C\C/C=C/C/C=C/CCC(=O)O [DHA, (4E,7E,10Z,13E,16E,19E)-docosa-4,7,10,13,16,19-hexanoic acid] | – | – | – | – | – | – | – | EFAD-1 formation after fatty acid supplementation [6]: increased; EFAD-2 formation after fatty acid supplementation [6]: did not increase |
| O=C(O)Cc1ccccc1Nc1c(Cl)cccc1Cl [Diclofenac] | ↓ | ↓ | ↓ | ↓ | ↓ | completely abolish | ↓ | – |
| CC/C=C\C/C=C\C/C=C\C/C=C\C/C=C\CCCC(=O)O [EPA, (5Z,8Z,11Z,14Z,17Z)-eicosa-5,8,11,14,17-pentanoic acid] | – | – | – | – | – | – | – | EFAD-2 formation after fatty acid supplementation [6]: significantly increased |
| CCCCCC#CCC#CCC#CCC#CCCCC(=O)O [ETYA, Eicosatetraynoic acid] | ↓ | ↓ | ↓ | ↓ | ↓ | strongly inhibit | ↓ | – |
| COc1ccc2c(c1)c(CC(=O)O)c(C)n2C(=O)c1ccc(Cl)cc1 [Indomethacin] | ↓ | ↓ | ↓ | ↓ | ↓ | completely abolish | ↓ | – |
| CC(C)c1ccc2c(c1)c(SC(C)(C)C)c(CC(C)(C)C(=O)O)n2Cc1ccc(Cl)cc1 [MK886] | – | – | – | – | – | no significant effect | – | – |
| CS(=O)(=O)Nc1ccc([N+](=O)[O-])cc1OC1CCCCC1 [NS-398] | – | – | – | – | – | abolished | – | – |
| C=C1[C@@H](O)[C@@H]2O[C@]3(CC[C@H](/C=C/[C@@H](C)[C@@H]4CC(C)=C[C@@]5(O[C@H](C[C@@](C)(O)C(=O)O)CC[C@H]5O)O4)O3)CC[C@H]2O[C@@H]1[C@@H](O)C[C@H](C)[C@H]1O[C@@]2(CCCCO2)CC[C@H]1C [OKA, okadaic acid] | – | – | – | – | – | – | – | Effect on EFAD formation (in words) [1]: slight increase |
| O=c1c(-c2ccc(O)cc2)coc2cc(O)cc(O)c12 [genistein] | ↓ | ↓ | ↓ | ↓ | ↓ | – | ↓ | inhibition at 25 µM [1, 7]: > 50% |
| CC/C=C\C/C=C\C/C=C\CCCCCCCC(=O)O [α-linolenic acid] | – | – | – | – | – | – | – | EFAD-2 formation after fatty acid supplementation [6]: significantly increased |
